Results: ChEMBL document CHEMBL1158504, “Cell permeability of Py-Im-polyamide-fluorescein conjugates: Influence of molecular size and Py/Im content” (Bioorg Med Chem, 2010)

Columns and labels:
Assay type in all cases: ADME, cell-based; call rule not given here
[1] = system: MCF7; test: Cellular uptake in human MCF7 cells assessed as labeled cells at 1 uM after 24 hrs by flow cytometry; conditions: mcf7, 24 h
[2] = system: HEK293; test: Cellular uptake in HEK293 cells assessed as localization to nucleus at 1 uM after 24 hrs by fluorescence microscopy; conditions: human, hek293, 24 h
[3] = system: MCF7; test: Cellular uptake in human MCF7 cells assessed as increase in labeled cells at 1 uM after 24 hrs by flow cytometry; conditions: mcf7, 24 h
[4] = system: HEK293; test: Cellular uptake in HEK293 cells assessed as labeled cells at 1 uM after 24 hrs by flow cytometry; conditions: human, hek293, 24 h
[5] = system: HEK293; test: Cellular uptake in HEK293 cells assessed as localization to cytoplasm at 1 uM after 24 hrs by fluorescence microscopy; conditions: human, hek293, 24 h
[6] = system: HEK293; test: Cellular uptake in HEK293 cells assessed as intracellular localization at 1 uM after 24 hrs by fluorescence microscopy; conditions: human, hek293, 24 h

| Compound | Drug uptake [4] [%] | also measured |
| --- | --- | --- |
| CN(C)CCCNC(=O)c1cc(NC(=O)c2cc(NC(=O)c3cc(NC(=O)CCCNC(=O)c4cc(NC(=O)c5cc(NC(=O)c6cc(NC(=O)CCNC(=S)Nc7ccc(-c8c9ccc(=O)cc-9oc9cc(O)ccc89)c(C(=O)O)c7)cn6C)cn5C)cn4C)cn3C)cn2C)cn1C | – | Drug uptake [1]: > 90% |
| CN(C)CCCNC(=O)c1nc(NC(=O)c2nc(NC(=O)c3nc(NC(=O)CCNc4nc(NC(=O)c5nc(NC(=O)c6nc(NC(=O)CCNC(=S)Nc7ccc(-c8c9ccc(=O)cc-9oc9cc(O)ccc89)c(C(=O)O)c7)cn6C)cn5C)cn4C)cn3C)cn2C)cn1C | 39 | Drug uptake [2]: Not Active; Drug uptake [3]: Not Active |
| CN(C)CCCNC(=O)c1nc(NC(=O)c2nc(NC(=O)c3nc(NC(=O)CCNC(=S)Nc4ccc(-c5c6ccc(=O)cc-6oc6cc(O)ccc56)c(C(=O)O)c4)cn3C)cn2C)cn1C | 53 | – |
| CN(C)CCCNC(=O)c1nc(NC(=O)c2nc(NC(=O)c3nc(NC(=O)CCNc4nc(NC(=O)c5nc(NC(=O)c6nc(NC(=O)CCNc7nc(NC(=O)c8nc(NC(=O)c9nc(NC(=O)CCNC(=S)Nc%10ccc(-c%11c%12ccc(=O)cc-%12oc%12cc(O)ccc%11%12)c(C(=O)O)c%10)cn9C)cn8C)cn7C)cn6C)cn5C)cn4C)cn3C)cn2C)cn1C | 3 | – |
| CN(C)CCCNC(=O)c1cc(NC(=O)c2cc(NC(=O)c3cc(NC(=O)CCNc4cc(NC(=O)c5cc(NC(=O)c6cc(NC(=O)CCNc7cc(NC(=O)c8cc(NC(=O)c9cc(NC(=O)CCNc%10cc(NC(=O)c%11cc(NC(=O)c%12cc(NC(=O)CCNc%13cc(NC(=O)c%14cc(NC(=O)c%15cc(NC(=O)CCNC(=S)Nc%16ccc(-c%17c%18ccc(=O)cc-%18oc%18cc(O)ccc%17%18)c(C(=O)O)c%16)cn%15C)cn%14C)cn%13C)cn%12C)cn%11C)cn%10C)cn9C)cn8C)cn7C)cn6C)cn5C)cn4C)cn3C)cn2C)cn1C | > 82 | Drug uptake [5]: Active |
| CN(C)CCCNC(=O)c1cc(NC(=O)c2cc(NC(=O)c3cc(NC(=O)CCNc4cc(NC(=O)c5cc(NC(=O)c6cc(NC(=O)CCNc7cc(NC(=O)c8cc(NC(=O)c9cc(NC(=O)CCNC(=S)Nc%10ccc(-c%11c%12ccc(=O)cc-%12oc%12cc(O)ccc%11%12)c(C(=O)O)c%10)cn9C)cn8C)cn7C)cn6C)cn5C)cn4C)cn3C)cn2C)cn1C | > 82 | Drug uptake [2]: Active |
| CN(C)CCCNC(=O)c1nc(NC(=O)c2nc(NC(=O)c3nc(NC(=O)CCNc4nc(NC(=O)c5nc(NC(=O)c6nc(NC(=O)CCNc7nc(NC(=O)c8nc(NC(=O)c9nc(NC(=O)CCNc%10nc(NC(=O)c%11nc(NC(=O)c%12nc(NC(=O)CCNC(=S)Nc%13ccc(-c%14c%15ccc(=O)cc-%15oc%15cc(O)ccc%14%15)c(C(=O)O)c%13)cn%12C)cn%11C)cn%10C)cn9C)cn8C)cn7C)cn6C)cn5C)cn4C)cn3C)cn2C)cn1C | 1.1 | – |
| CN(C)CCCNC(=O)c1cc(NC(=O)c2cc(NC(=O)c3cc(NC(=O)CCNC(=S)Nc4ccc(-c5c6ccc(=O)cc-6oc6cc(O)ccc56)c(C(=O)O)c4)cn3C)cn2C)cn1C | 53 | – |
| CN(C)CCCNC(=O)c1cc(NC(=O)c2cc(NC(=O)c3cc(NC(=O)CCNc4cc(NC(=O)c5cc(NC(=O)c6cc(NC(=O)CCNC(=S)Nc7ccc(-c8c9ccc(=O)cc-9oc9cc(O)ccc89)c(C(=O)O)c7)cn6C)cn5C)cn4C)cn3C)cn2C)cn1C | > 82 | Drug uptake [2]: Active; Drug uptake [3]: Active |
| CN(C)CCCNC(=O)c1cc(NC(=O)c2cc(NC(=O)c3cc(NC(=O)CCNc4cc(NC(=O)c5cc(NC(=O)c6cc(NC(=O)CCNc7cc(NC(=O)c8cc(NC(=O)c9cc(NC(=O)CCNc%10cc(NC(=O)c%11cc(NC(=O)c%12cc(NC(=O)CCNc%13cc(NC(=O)c%14cc(NC(=O)c%15cc(NC(=O)CCNc%16cc(NC(=O)c%17cc(NC(=O)c%18cc(NC(=O)CCNC(=S)Nc%19ccc(-c%20c%21ccc(=O)cc-%21oc%21cc(O)ccc%20%21)c(C(=O)O)c%19)cn%18C)cn%17C)cn%16C)cn%15C)cn%14C)cn%13C)cn%12C)cn%11C)cn%10C)cn9C)cn8C)cn7C)cn6C)cn5C)cn4C)cn3C)cn2C)cn1C | > 82 | Drug uptake [5]: Active; Drug uptake [6]: Active |
| CN(C)CCCNC(=O)c1cc(NC(=O)c2cc(NC(=O)c3cc(NC(=O)CCNc4cc(NC(=O)c5cc(NC(=O)c6cc(NC(=O)CCNc7cc(NC(=O)c8cc(NC(=O)c9cc(NC(=O)CCNc%10cc(NC(=O)c%11cc(NC(=O)c%12cc(NC(=O)CCNC(=S)Nc%13ccc(-c%14c%15ccc(=O)cc-%15oc%15cc(O)ccc%14%15)c(C(=O)O)c%13)cn%12C)cn%11C)cn%10C)cn9C)cn8C)cn7C)cn6C)cn5C)cn4C)cn3C)cn2C)cn1C | > 82 | – |
